Laboratory results reported in the supplement of paper PMC4862054.

tested on: CAL-51; assay: drug sensitivity score (DSS), CellTiter-Glo (DSS (AUC-based score)); higher = stronger drug effect (viability inhibition or cytotoxicity); extreme values may be limits of the assay; conditions: incubation time: 72 h
Method in brief: (§1)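 A drug sensitivity score was derived from the area under each fitted dose-response curve. Breast cancer cells (20 µl suspension) were seeded onto compound in 384-well plates, using 5 concentrations 10-fold apart over a compound-specific 10,000-fold range, and incubated 72 h. Readouts were CellTox Green fluorescence and then CellTiter-Glo luminescence, with every plate normalised to 0.1 % DMSO and a positive kill control.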

Row | SMILES | drug sensitivity score
1 | C[C@]12CC[C@@H]3c4ccc(O)cc4C[C@@H](CCCCCCCCC[S+]([O-])CCCC(F)(F)C(F)(F)F)[C@H]3[C@@H]1CC[C@@H]2O (some centres undefined) [Fulvestrant] | 0
2 | CN(C)/N=N/c1[nH]cnc1C(N)=O [Dacarbazine] | 0
3 | CC(C)Cn1cnc2c(N)nc3ccccc3c21 [Imiquimod] | 0
4 | C#Cc1cccc(Nc2ncnc3cc(OCCOC)c(OCCOC)cc23)c1 [Erlotinib] | 2.18
5 | N[C@@H](CSC(c1ccccc1)(c1ccccc1)c1ccccc1)C(=O)O [S-trityl-L-cysteine] | 0
6 | O=P1(NCCCl)OCCCN1CCCl (centres undefined) [Ifosfamide] | 0
7 | Cc1ccc(-n2nc(C(C)(C)C)cc2NC(=O)Nc2ccc(OCCN3CCOCC3)c3ccccc23)cc1 [Doramapimod] | 0
8 | Cn1c(Nc2ccc(C(F)(F)F)cc2)nc2cc(Oc3ccnc(-c4ncc(C(F)(F)F)[nH]4)c3)ccc21 [RAF265] | 0
9 | COc1cc([C@@H]2c3cc4c(cc3[C@@H](O[C@@H]3O[C@@H]5CO[C@@H](C)O[C@H]5[C@H](O)[C@H]3O)[C@H]3COC(=O)[C@H]23)OCO4)cc(OC)c1O [Etoposide] | 8.68
10 | CN(N=O)C(=O)N[C@@H](C=O)[C@@H](O)[C@H](O)[C@H](O)CO [Streptozocin] | 0
11 | Cc1ccc(C(=O)N(CCCN)[C@@H](c2oc3cc(Cl)ccc3c(=O)c2Cc2ccccc2)C(C)C)cc1 | 9.66

tested on: DU-4475; assay: as above; conditions: incubation time: 72 h
Method in brief: as §1

Row | SMILES | drug sensitivity score
12 | CNCc1ccc(-c2[nH]c3cc(F)cc4c3c2CCNC4=O)cc1 [Rucaparib] | 0
13 | C[C@]12CC[C@@H]3c4ccc(O)cc4C[C@@H](CCCCCCCCC[S+]([O-])CCCC(F)(F)C(F)(F)F)[C@H]3[C@@H]1CC[C@@H]2O (some centres undefined) [Fulvestrant] | 0
14 | CN(C)/N=N/c1[nH]cnc1C(N)=O [Dacarbazine] | 0
15 | CC(C)Cn1cnc2c(N)nc3ccccc3c21 [Imiquimod] | 0
16 | C#Cc1cccc(Nc2ncnc3cc(OCCOC)c(OCCOC)cc23)c1 [Erlotinib] | 0
17 | N[C@@H](CSC(c1ccccc1)(c1ccccc1)c1ccccc1)C(=O)O [S-trityl-L-cysteine] | 0
18 | O=P1(NCCCl)OCCCN1CCCl (centres undefined) [Ifosfamide] | 0
19 | Cc1ccc(-n2nc(C(C)(C)C)cc2NC(=O)Nc2ccc(OCCN3CCOCC3)c3ccccc23)cc1 [Doramapimod] | 0
20 | Cn1c(Nc2ccc(C(F)(F)F)cc2)nc2cc(Oc3ccnc(-c4ncc(C(F)(F)F)[nH]4)c3)ccc21 [RAF265] | 1.18
21 | COc1cc([C@@H]2c3cc4c(cc3[C@@H](O[C@@H]3O[C@@H]5CO[C@@H](C)O[C@H]5[C@H](O)[C@H]3O)[C@H]3COC(=O)[C@H]23)OCO4)cc(OC)c1O [Etoposide] | 9.9
22 | CN(N=O)C(=O)N[C@@H](C=O)[C@@H](O)[C@H](O)[C@H](O)CO [Streptozocin] | 0
23 | Cc1ccc(C(=O)N(CCCN)[C@@H](c2oc3cc(Cl)ccc3c(=O)c2Cc2ccccc2)C(C)C)cc1 | 0

tested on: HCC1143; assay: as above; conditions: incubation time: 72 h
Method in brief: as §1

Row | SMILES | drug sensitivity score
24 | CNCc1ccc(-c2[nH]c3cc(F)cc4c3c2CCNC4=O)cc1 [Rucaparib] | 0
25 | C[C@]12CC[C@@H]3c4ccc(O)cc4C[C@@H](CCCCCCCCC[S+]([O-])CCCC(F)(F)C(F)(F)F)[C@H]3[C@@H]1CC[C@@H]2O (some centres undefined) [Fulvestrant] | 0
26 | CN(C)/N=N/c1[nH]cnc1C(N)=O [Dacarbazine] | 0
27 | CC(C)Cn1cnc2c(N)nc3ccccc3c21 [Imiquimod] | 0
28 | C#Cc1cccc(Nc2ncnc3cc(OCCOC)c(OCCOC)cc23)c1 [Erlotinib] | 0
29 | N[C@@H](CSC(c1ccccc1)(c1ccccc1)c1ccccc1)C(=O)O [S-trityl-L-cysteine] | 0
30 | O=P1(NCCCl)OCCCN1CCCl (centres undefined) [Ifosfamide] | 0
31 | Cc1ccc(-n2nc(C(C)(C)C)cc2NC(=O)Nc2ccc(OCCN3CCOCC3)c3ccccc23)cc1 [Doramapimod] | 0
32 | Cn1c(Nc2ccc(C(F)(F)F)cc2)nc2cc(Oc3ccnc(-c4ncc(C(F)(F)F)[nH]4)c3)ccc21 [RAF265] | 0
33 | COc1cc([C@@H]2c3cc4c(cc3[C@@H](O[C@@H]3O[C@@H]5CO[C@@H](C)O[C@H]5[C@H](O)[C@H]3O)[C@H]3COC(=O)[C@H]23)OCO4)cc(OC)c1O [Etoposide] | 4.37
34 | CN(N=O)C(=O)N[C@@H](C=O)[C@@H](O)[C@H](O)[C@H](O)CO [Streptozocin] | 0
35 | Cc1ccc(C(=O)N(CCCN)[C@@H](c2oc3cc(Cl)ccc3c(=O)c2Cc2ccccc2)C(C)C)cc1 | 0

tested on: HCC1599; assay: as above; conditions: incubation time: 72 h
Method in brief: as §1

Row | SMILES | drug sensitivity score
36 | CNCc1ccc(-c2[nH]c3cc(F)cc4c3c2CCNC4=O)cc1 [Rucaparib] | 0
37 | C[C@]12CC[C@@H]3c4ccc(O)cc4C[C@@H](CCCCCCCCC[S+]([O-])CCCC(F)(F)C(F)(F)F)[C@H]3[C@@H]1CC[C@@H]2O (some centres undefined) [Fulvestrant] | 0
38 | CN(C)/N=N/c1[nH]cnc1C(N)=O [Dacarbazine] | 0
39 | CC(C)Cn1cnc2c(N)nc3ccccc3c21 [Imiquimod] | 0
40 | C#Cc1cccc(Nc2ncnc3cc(OCCOC)c(OCCOC)cc23)c1 [Erlotinib] | 0
41 | N[C@@H](CSC(c1ccccc1)(c1ccccc1)c1ccccc1)C(=O)O [S-trityl-L-cysteine] | 0
42 | O=P1(NCCCl)OCCCN1CCCl (centres undefined) [Ifosfamide] | 0
43 | Cc1ccc(-n2nc(C(C)(C)C)cc2NC(=O)Nc2ccc(OCCN3CCOCC3)c3ccccc23)cc1 [Doramapimod] | 0
44 | Cn1c(Nc2ccc(C(F)(F)F)cc2)nc2cc(Oc3ccnc(-c4ncc(C(F)(F)F)[nH]4)c3)ccc21 [RAF265] | 0
